Experimental data: US20090286866A1, “Double compartment skincare products comprising avermectin/milbemycin compounds” (GALDERMA S.A., priority 2006, published 2009)

Legend:
[1] = Maximum solubility of ivermectin in various excipients; assay type: physicochemical; settings: room temperature
Experimental: Study of the maximum solubility of ivermectin at T=1 hour at room temperature in various excipients.

[2] = Comparative study of the chemical stability of ivermectin in various excipients; assay type: physicochemical
Description: Comparative study of the chemical stability of ivermectin in various excipients.

## ivermectin
[1]; in Alkyl benzoate, T=1 hour
  Maximum solubility: 1.60 % (m/m)
[1]; in Capric/caprylic triglycerides, T=1 hour
  Maximum solubility: 1.70 % (m/m)
[1]; in Diisopropyl adipate, T=1 hour
  Maximum solubility: 10.40 % (m/m)
[1]; in Dimethyl isosorbide, T=1 hour
  Maximum solubility: 35.20 % (m/m)
[1]; in Ethanol rectapur, T=1 hour
  Maximum solubility: 14.47 % (m/m)
[1]; in Macrogol 15 hydroxystearate, T=1 hour
  Maximum solubility: 10.60 % (m/m)
[1]; in N-Methyl-2-pyrrolidone, T=1 hour
  Maximum solubility: 58.13 % (m/m)
[1]; in Octyl dodecanol, T=1 hour
  Maximum solubility: 2.50 % (m/m)
[1]; in Oleyl alcohol, T=1 hour
  Maximum solubility: 3.48 % (m/m)
[1]; in PEG 400, T=1 hour
  Maximum solubility: 9.14 % (m/m)
[1]; in PPG 15 stearyl ether, T=1 hour
  Maximum solubility: 3.30 % (m/m)
[1]; in Phenoxyethanol, T=1 hour
  Maximum solubility: 15.70 % (m/m)
[1]; in Poloxamer 124, T=1 hour
  Maximum solubility: 7.50 % (m/m)
[1]; in Polysorbate 80, T=1 hour
  Maximum solubility: 10.31 % (m/m)
[1]; in Propylene glycol (PG), T=1 hour
  Maximum solubility: 21.83 % (m/m)
[1]; in Triacetin, T=1 hour
  Maximum solubility: 7.22 % (m/m)
[2]; in Benzyl alcohol, 25° C.
  Amount after storage at 25° C. for 1 month: 99.01%
[2]; in Benzyl alcohol, 40° C.
  Amount after storage at 40° C. for 1 month: 98.62%
[2]; in Benzyl alcohol, T0
  Amount at T0: 98.72%
[2]; in Diisopropyl adipate, 25° C.
  Amount after storage at 25° C. for 1 month: 97.19%
[2]; in Diisopropyl adipate, 40° C.
  Amount after storage at 40° C. for 1 month: 96.70%
[2]; in Diisopropyl adipate, T0
  Amount at T0: 102.5%
[2]; in Macrogol 15-hydroxystearate, 25° C.
  Amount after storage at 25° C. for 1 month: 95.32%
[2]; in Macrogol 15-hydroxystearate, 40° C.
  Amount after storage at 40° C. for 1 month: 71.88%
[2]; in Macrogol 15-hydroxystearate, T0
  Amount at T0: 98.76%
[2]; in PPG 15-stearyl ether, 25° C.
  Amount after storage at 25° C. for 1 month: 98.61%
[2]; in PPG 15-stearyl ether, 40° C.
  Amount after storage at 40° C. for 1 month: 98.07%
[2]; in PPG 15-stearyl ether, T0
  Amount at T0: 102.48%
[2]; in Phenoxyethanol, 25° C.
  Amount after storage at 25° C. for 1 month: 97.77%
[2]; in Phenoxyethanol, 40° C.
  Amount after storage at 40° C. for 1 month: 98.56%
[2]; in Phenoxyethanol, T0
  Amount at T0: 99.42%
[2]; in Poloxamer 124, 25° C.
  Amount after storage at 25° C. for 1 month: 98.19%
[2]; in Poloxamer 124, 40° C.
  Amount after storage at 40° C. for 1 month: 92.34%
[2]; in Poloxamer 124, T0
  Amount at T0: 98.09%
[2]; in diisopropyl adipate, benzyl alcohol, PPG-15 stearyl ether and phenoxyethanol, at room temperature or at 40° C.
  Stability of ivermectin (in words): good stability
[2]; in macrogol 15-hydroxystearate and in poloxamer, in particular at 40° C.
  Stability of ivermectin (in words): less stable
